This is an account of results in patent publication US12054494B2, “Compound with anticancer activity” (KYOWA KIRIN CO., LTD., priority 2018, dated 2024).

The IC90 is the concentration needed for an effect of 90%. Low values mean greater potency, high ones weaker potency.

Molecules are shown by their SMILES.

This assay relates to SU-DHL-4 cells. Briefly: Inhibitory effect on cell viability (Cell Counting Kit-8). In kind it is cell-based. As to conditions: Homo sapiens, 72 hours culture with test compound, concentration showing 90% inhibition rate of cell viability. An outline of the steps:
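SU-DHL-4 cells (2000/well, RPMI1640 with 10% FBS) precultured 18-25 h, then exposed to a 9-step compound dilution series (0.1% DMSO final) for 72 h at 37° C. Viability by CCK-8 absorbance at 450 nm after 2-3 h; IC90 computed from inhibition rate relative to untreated and cell-free wells.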
For orientation: Tetrazolium dyes change colour on reduction, which living cells bring about.
In the case of `CCC(=O)N1c2ccccc2[C@H](Nc2ccc(NC(=O)CNC(=O)C(F)=C3CCC(N[C@@H]4C[C@H](C)N(C(=O)CC)c5ccccc54)CC3)cc2)C[C@@H]1C` (relative stereo) [Compound 15k, 2-Fluoro-2-(4-(((2S*,4R*)-2-methyl-1-propionyl-1,2,3,4-tetrahydroquinolin-4-yl)amino)cyclohexylidene)-N-(2-((4-(((2S,4R)-2-methyl-1-propionyl-1,2,3,4-tetrahydroquinolin-4-yl)amino)phenyl)amino)-2-oxoethyl)acetamide], the IC90 was 0.32 nM.
Consider `Cc1sc2c(c1C)C(c1ccc(C(=O)NCCCNC(=O)c3ccc(C4=N[C@@H](CC(=O)OC(C)(C)C)c5nnc(C)n5-c5sc(C)c(C)c54)cc3)cc1)=N[C@@H](CC(=O)OC(C)(C)C)c1nnc(C)n1-2` [Compound 1b, Di-tert-butyl 2,2′-[(6S,6′S)-({[propane-1,3-diylbis(azanediyl)]bis(carbonyl)}bis(4,1-phenylene))bis(2,3,9-trimethyl-6H-thieno[3,2-f][1,2,4]triazolo[4,3-a][1,4]diazepine-4,6-diyl)]diacetate], for which the IC90 is 1.78 nM.
Consider `CCC(=O)N1c2ccccc2[C@H](Nc2ccc(C(=O)N3CC4CC3CN4C(=O)c3ccc(N[C@@H]4C[C@H](C)N(C(=O)CC)c5ccccc54)cc3)cc2)C[C@@H]1C` [Compound 1k, 1,1′-{(2S,2′S,4R,4′R)-{[(2,5-Diazabicyclo[2.2.1]heptane-2,5-dicarbonyl)bis(4,1-phenylene)]bis(azanediyl)}bis[2-methyl-3,4-dihydroquinoline-4,1(2H)-diyl]}bis(propan-1-one)], for which the 90% effect level (IC90) was put at 0.55 nM.
With `CCC(=O)N1c2ccccc2[C@H](Nc2ccc(C(=O)NCC(=O)CNC(=O)c3ccc(N[C@@H]4C[C@H](C)N(C(=O)CC)c5ccccc54)cc3)cc2)C[C@@H]1C` [Compound 1l, N,N′-(2-Oxopropane-1,3-diyl)bis(4-{[(2S,4R)-2-methyl-1-propionyl-1,2,3,4-tetrahydroquinolin-4-yl]amino}benzamide)], the 90% effect level (IC90) was put at 0.04 nM.
`CCC(=O)N1c2ccccc2[C@H](Nc2ccc(C(=O)NC3CCN(C(=O)c4ccc(C5=NCc6nnc(C)n6-c6sc(C)c(C)c65)cc4)CC3)cc2)C[C@@H]1C` [Compound 1m, 4-{[(2S,4R)-2-Methyl-1-propionyl-1,2,3,4-tetrahydroquinolin-4-yl]amino}-N-{1-[4-(2,3,9-trimethyl-6H-thieno[3,2-f][1,2,4]triazolo[4,3-a][1,4]diazepin-4-yl)benzoyl]piperidin-4-yl}benzamide]: the IC90 amounted to 0.53 nM.
`CCC(=O)N1c2ccccc2[C@H](Nc2ccc(C(=O)N3CC(NC(=O)c4ccc(C5=N[C@@H](CC(=O)OC(C)(C)C)c6nnc(C)n6-c6sc(C)c(C)c65)cc4)C3)cc2)C[C@@H]1C` [Compound 1n, tert-Butyl 2-[(S)-2,3,9-trimethyl-4-(4-{[1-(4-{[(2S,4R)-2-methyl-1-propionyl-1,2,3,4-tetrahydroquinolin-4-yl]amino}benzoyl)azetidin-3-yl]carbamoyl}phenyl)-6H-thieno[3,2-f][1,2,4]triazolo[4,3-a][1,4]diazepin-6-yl]acetate] had an IC90 of 0.49 nM.
In turn, `CCC(=O)N1c2ccccc2[C@H](Nc2ccc(C(=O)NCc3cn(-c4ccc(N[C@@H]5C[C@H](C)N(C(=O)CC)c6ccccc65)cc4)nn3)cc2)C[C@@H]1C` [Compound 3a, 4-{[(2S,4R)-2-Methyl-1-propionyl-1,2,3,4-tetrahydroquinolin-4-yl]amino}-N-{[1-(4-{[(2S,4R)-2-methyl-1-propionyl-1,2,3,4-tetrahydroquinolin-4-yl]amino}phenyl)-1H-1,2,3-triazol-4-yl]methyl}benzamide] came in with an IC90 of 0.04 nM.
The compound `CCC(=O)N1c2ccccc2[C@H](Nc2ccc(C(=O)NCc3nnc(-c4ccc(N[C@@H]5C[C@H](C)N(C(=O)CC)c6ccccc65)cc4)o3)cc2)C[C@@H]1C` [Compound 3c, 4-{[(2S,4R)-2-Methyl-1-propionyl-1,2,3,4-tetrahydroquinolin-4-yl]amino}-N-{[5-(4-{[(2S,4R)-2-methyl-1-propionyl-1,2,3,4-tetrahydroquinolin-4-yl]amino}phenyl)-1,3,4-oxadiazol-2-yl]methyl}benzamide] showed an IC90 of 0.11 nM.
Then `CCC(=O)N1c2ccccc2[C@H](Nc2ccc(C(=O)NCc3noc(-c4ccc(N[C@@H]5C[C@H](C)N(C(=O)CC)c6ccccc65)cc4)n3)cc2)C[C@@H]1C` [Compound 3d, 4-{[(2S,4R)-2-Methyl-1-propionyl-1,2,3,4-tetrahydroquinolin-4-yl]amino}-N-{[5-(4-{[(2S,4R)-2-methyl-1-propionyl-1,2,3,4-tetrahydroquinolin-4-yl]amino}phenyl)-1,2,4-oxadiazol-3-yl]methyl}benzamide], with 0.11 nM; and `CCC(=O)N1c2ccccc2[C@H](Nc2ccc(C(=O)N3CCn4c(-c5ccc(N[C@@H]6C[C@H](C)N(C(=O)CC)c7ccccc76)cc5)cnc4C3)cc2)C[C@@H]1C` [Compound 3e, 1-[(2S,4R)-2-Methyl-4-({4-[3-(4-{[(2S,4R)-2-methyl-1-propionyl-1,2,3,4-tetrahydroquinolin-4-yl]amino}phenyl)-5,6,7,8-tetrahydroimidazo[1,2-a]pyrazine-7-carbonyl]phenyl}amino)-3,4-dihydroquinolin-1(2H)-yl]propan-1-one], with 0.12 nM.
`CCC(=O)N1c2ccccc2[C@H](Nc2ccc(C(=O)N3CCn4cc(-c5ccc(N[C@@H]6C[C@H](C)N(C(=O)CC)c7ccccc76)cc5)nc4C3)cc2)C[C@@H]1C` [Compound 3f, 1-[(2S,4R)-2-Methyl-4-({4-[2-(4-{[(2S,4R)-2-methyl-1-propionyl-1,2,3,4-tetrahydroquinolin-4-yl]amino}phenyl)-5,6,7,8-tetrahydroimidazo[1,2-a]pyrazine-7-carbonyl]phenyl}amino)-3,4-dihydroquinolin-1(2H)-yl]propan-1-one]: the IC90 was determined as 0.33 nM.
As for `CCC(=O)N1c2ccccc2[C@H](Nc2ccc(SCCNC(=O)c3ccc(N[C@@H]4C[C@H](C)N(C(=O)CC)c5ccccc54)cc3)cc2)C[C@@H]1C` [Compound 4f, 4-{[(2S,4R)-2-Methyl-1-propionyl-1,2,3,4-tetrahydroquinolin-4-yl]amino}-N-{2-[(4-{[(2S,4R)-2-methyl-1-propionyl-1,2,3,4-tetrahydroquinolin-4-yl]amino}phenyl)thio]ethyl}benzamide], the IC90 came out at 1.19 nM.
With `CCC(=O)N1c2ccccc2[C@H](Nc2ccc(NC(=O)c3coc(Nc4ccc(N[C@@H]5C[C@H](C)N(C(=O)CC)c6ccccc65)cc4)n3)cc2)C[C@@H]1C` [Compound 5a, N-(4-(((2S,4R)-2-Methyl-1-propionyl-1,2,3,4-tetrahydroquinolin-4-yl)amino)phenyl)-2-((4-(((2S,4R)-2-methyl-1-propionyl-1,2,3,4-tetrahydroquinolin-4-yl)amino)phenyl)amino)oxazole-4-carboxamide] the figure was 2.15 nM; with `CCC(=O)N1c2ccccc2[C@H](Nc2ccc(CN3CCn4cc(-c5ccc(N[C@@H]6C[C@H](C)N(C(=O)CC)c7ccccc76)cc5)nc4C3)cc2)C[C@@H]1C` [Compound 5b, 1-((2S,4R)-2-Methyl-4-((4-((2-(4-(((2S,4R)-2-methyl-1-propionyl-1,2,3,4-tetrahydroquinolin-4-yl)amino)phenyl)-5,6-dihydroimidazo[1,2-a]pyrazin-7(8H)-yl)methyl)phenyl)amino)-3,4-dihydroquinolin-1(2H)-yl)propan-1-one], 39.6 nM.
